Experimental data published in patent US20250073230A1, “USE OF PLINABULIN IN COMBINATION WITH IMMUNE CHECKPOINT INHIBITORS” (BeyondSpring Pharmaceuticals, Inc., priority 2015, published 2025).
Entries after “also recorded” stand apart in the source; their conditions may differ.

Tests used:
MC-38 tumor cells [1] = experiment: MC-38 tumor model, Plinabulin with PD-1 antibody and CTLA-4 antibody (Example 7); format: in vivo, mice; details: Example 7, FIG. 4B; six treatment groups
Procedure: The combined treatment with Plinabulin and a PD-1 checkpoint inhibitor in combination with a CTLA-4 checkpoint inhibitor was tested in comparison with the treatment with Plinabulin alone, the treatment with PD-1 antibody alone, or the treatment with PD-1 antibody in combination with CTLA-4 antibody. The tests were performed using seven to ten-week old mice that were injected subcutaneously with MC-38 tumor cells. Six testing groups were prepared, and each group included 10 mice. Group 1 was administered with IgG2a and plinabulin vehicle; Group 2 was administered with Plinabulin dissolved in diluent at a concentration of 7.5 mg/kg; Group 3 was administered with PD-1 antibody; Group 4 was administered with a Plinabulin/PD-1 antibody combined treatment; Group 5 was administered combined PD-1/CTLA-4 antibodies; and Group 6 was administered combined PD-1 antibody/CTLA-4 antibody/Plinabulin treatment. For the Plinabulin/PD-1 antibody combined treatment (Group 4) and the Plinabulin/PD-1/CTLA-4 antibody treatment (Group 6), the mice were administered twice per week (Day 1 and Day 4 of each week) with Plinabulin (7.5 mg/kg) that was dissolved in diluent, followed by administering antibody (ies) one hour after each Plinabulin administration. […] At necropsy the tissues were weighed and subjected to FACS analysis.

SP37A3 DCs [2] = experiment: Production of pro-inflammatory cytokines by DCs (ELISA of supernatants); format: cell-based, mouse; details: Example 2, FIG. 3A-3C, 20 h
Procedure: Two other cancer drugs, Paclitaxel and Etoposide, were also tested to compare their effects on DC maturation with Plinabulin. SP37A3 DCs (murine DC line, Merck) were plated (8×10^4 cells/well, 96-well flat bottom, tissue-culture treated) in 180 uL IMDM complete medium [IMDM medium (Sigma) supplemented with 10% heat-inactivated and endotoxin-tested FBS (PAA), sodium pyruvate (Gibco), penicillin/streptomycin L-glutamine mix (Gibco), MEM nonessential amino acids (Sigma) and 0.05 mM 2-mercaptoethanol (Gibco)]. IMDM complete medium was supplemented with 20 ng/mL recombinant mouse GM-CSF. DCs were allowed to adhere for two hours before Plinabulin, Paclitaxel, Etoposide, medium, or LPS (positive control) were added 10× concentrated in 20 uL. […] Cells were analyzed using a BD Fortessa Cytometer equipped with DIVA software. Mean fluorescence intensity (MFI) of the DC maturation markers CD40 (FIG. 2A), CD80 (FIG. 2B), CD86 (FIG. 2C) and MHCII (FIG. 2D) in live cells was normalized to the MFI of those markers detected in untreated (medium) DCs. The production of the pro-inflammatory cytokines IL-1β(FIG. 3A), IL-6 (FIG. 3B), and IL-12p40 (FIG. 3C) were also determined by ELISA.

SP37A3 DCs [3] = experiment: Expression of DC maturation markers CD40, CD80, CD86 and MHCII by flow cytometry; format: cell-based, mouse; details: 0.001-10 μM, 20 h
Procedure: Cell lines: The immature mouse DC cell line SP37A3 (provided by Merck KGaA) was cultured in Iscove's Modified Dulbecco's Medium (IMDM; Sigma) supplemented with 10% heat-inactivated and endotoxin-tested FBS (PAA), sodium pyruvate (Gibco), penicillin/streptomycin L-glutamine mix (Gibco), Eagle's Minimum Essential Medium (MEM) nonessential amino acids (Sigma), Ciproxin (Bayer), and 0.05 mmol/L 2-mercaptoethanol (Gibco). IMDM complete medium was supplemented with 20 ng/mL recombinant mouse GM-CSF and 20 ng/mL recombinant mouse M-CSF (both Peprotech). The murine tumor cell lines EG7 and 3LL-OVA were obtained from ATCC or provided by Douglas T. Fearon (Cancer Research UK Cambridge Institute, Li Ka Shing Centre, University of Cambridge, Cambridge, UK), respectively. All cell lines were tested and validated to be Mycoplasma-free. Expression of OVA in EG7 and 3LL-OVA, and of Thy1.1 in RMAThy1.1, respectively, was confirmed; no genomic authentication was performed.
SP37A3 DCs (murine DC line, Merck) were plated (8×10^4 cells/well, 96-well flat bottom, tissue-culture treated) in 180 uL IMDM complete medium [IMDM medium (Sigma) supplemented with 10% heat-inactivated and endotoxin-tested FBS (PAA), sodium pyruvate (Gibco), penicillin/streptomycin L-glutamine mix (Gibco), MEM nonessential amino acids (Sigma) and 0.05 mM 2-mercaptoethanol (Gibco)]. IMDM complete medium was supplemented with 20 ng/mL recombinant mouse GM-CSF. DCs were allowed to adhere for two hours before Plinabulin, medium, or LPS as controls were added 10× concentrated in 20 uL. DCs were incubated with Plinabulin in various concentrations (0.001 μM, 0.01 μM, 0.1 μM, 1 μM, 10 μM), medium, and LPS respectively for 20 h. Supernatants of these cultures were collected and used for detection of cytokine production by ELISA (kits available from BD) and the cells were stained with the LD-IR viability dye (Invitrogen) as well as with fluorochrom-labeled monoclonal antibodies against CD80, CD86, CD40 and MHCII for flow cytometric analysis. Cells were analyzed using a BD Fortessa Cytometer equipped with DIVA software. Mean fluorescence intensity (MFI) of the DC maturation markers CD40, CD80, CD86 and MHCII in live cells was normalized to the MFI of those markers detected in untreated (medium) DCs.
Two other cancer drugs, Paclitaxel and Etoposide, were also tested to compare their effects on DC maturation with Plinabulin. […] Cells were analyzed using a BD Fortessa Cytometer equipped with DIVA software. Mean fluorescence intensity (MFI) of the DC maturation markers CD40 (FIG. 2A), CD80 (FIG. 2B), CD86 (FIG. 2C) and MHCII (FIG. 2D) in live cells was normalized to the MFI of those markers detected in untreated (medium) DCs. […]

MC-38 tumor cells [4] = experiment: FACS analysis of the tumors at necropsy, MC-38 CRC tumor model (Example 7); format: in vivo, mice
Procedure: The combined treatment with Plinabulin and a PD-1 checkpoint inhibitor in combination with a CTLA-4 checkpoint inhibitor was tested in comparison with the treatment with Plinabulin alone, the treatment with PD-1 antibody alone, or the treatment with PD-1 antibody in combination with CTLA-4 antibody. The tests were performed using seven to ten-week old mice that were injected subcutaneously with MC-38 tumor cells. Six testing groups were prepared, and each group included 10 mice.
Group 1 was administered with IgG2a and plinabulin vehicle; Group 2 was administered with Plinabulin dissolved in diluent at a concentration of 7.5 mg/kg; Group 3 was administered with PD-1 antibody; Group 4 was administered with a Plinabulin/PD-1 antibody combined treatment; Group 5 was administered combined PD-1/CTLA-4 antibodies; and Group 6 was administered combined PD-1 antibody/CTLA-4 antibody/Plinabulin treatment. For the Plinabulin/PD-1 antibody combined treatment (Group 4) and the Plinabulin/PD-1/CTLA-4 antibody treatment (Group 6), the mice were administered twice per week (Day 1 and Day 4 of each week) with Plinabulin (7.5 mg/kg) that was dissolved in diluent, followed by administering antibody (ies) one hour after each Plinabulin administration. For the Plinabulin only treatment (Group 2) or the antibody (ies) only treatment (Groups 3 and 5), mice were administered Plinabulin (7.5 mg/kg dissolved in diluent) or antibody (ies) alone twice per week (Day 1 and Day 4 of each week).
Each treatment started at tumor size of around 125 mm^3 and continued until tumor size of 3000 mm^3 was reached. […] To determine the efficacy of each treatment, the following data were collected: mortality rate prior to tumor size reaching 3000 mm^3; the body weight of the mice assessed twice weekly both prior to treatments; the rate of tumor growth as determined by the tumor size measurement (twice every week); the tumor growth index; overall survival rate; the tumor weight at necropsy; and the time required to increase tumor size 10 fold. […]

SP37A3 DCs [5] = experiment: DC viability (SytoxGreen staining); format: cell-based, mouse; details: FIG. 1B, 0.001-10 μM, 20 h

CC(C)(C)c1[nH]cnc1/C=c1\[nH]c(=O)/c(=C/c2ccccc2)[nH]c1=O [Plinabulin, (3Z,6Z)-3-Benzylidene-6-{[5-(2-methyl-2-propanyl)-1H-imidazol-4-yl]methylene}-2,5-piperazinedione]
mean tumor weight at necropsy (MC-38 tumor cells [1]): decreased tumor weight at necropsy | production of IL1b, IL6 and IL12 (IL-12p40) compared with Paclitaxel, Etoposide and LPS (SP37A3 DCs [2]): increased production of IL1b, IL6, and IL12 | expression of DC maturation markers CD40, CD80, CD86 and MHCII (MFI normalized to untreated DCs) (SP37A3 DCs [3]; Example 1, FIG. 1A): significantly increased expression of all four DC maturation markers | expression of DC maturation markers CD40, CD80, MHCII and CD86 compared with Paclitaxel and Etoposide (SP37A3 DCs [3]; Example 2, FIG. 2A-2D): much greater expression of all four DC maturation markers | expression of DC maturation markers compared with positive control LPS (SP37A3 DCs [3]; Example 2, FIG. 2A-2D): significantly increased expression of all four markers | induction of DC maturation, rank among Plinabulin, Paclitaxel and Etoposide (SP37A3 DCs [3]; Example 2): most potent inducer of DC maturation among all three drugs | percentage of Treg cells in tumor (MC-38 tumor cells [4]; FIG. 5A, vs comparator group without plinabulin): reduction in % Treg cells; also recorded: decreased percentage of Regulatory T cells | ratio of CD8+ cells to Treg cells in tumor (MC-38 tumor cells [4]; FIG. 5B): increase in the ratio of CD8+/Treg cells | percentage of macrophages in CD45+ lymphocytes in tumor (MC-38 tumor cells [4]; FIG. 5C, vs respective comparator groups): decreased percentage of macrophage stained cells | DC viability (SP37A3 DCs [5]): did not change significantly
